Laboratory results taken from ChEMBL document CHEMBL1127166, “The analgesic effect of epibatidine and isomers” (1993).

What was measured:
Assay type in all cases: functional
Mus musculus [1] = assay: Tested for the maximum possible analgesic effect of epibatidine after 30 min in mouse tail-flick assay at subcutaneous dosage of 1000 ug/kg
Mus musculus [2] = assay: Tested for the analgesic effect in the mouse tail-flick assay at 5 min after subcutaneous injection at dosage of 50-1000 ug/kg; conditions: sc
Mus musculus [3] = assay: Tested for the maximum possible analgesic effect of epibatidine after 5 min in mouse tail-flick assay at subcutaneous dosage of 1000 ug/kg
Mus musculus [4] = assay: Tested for the maximum possible analgesic effect of epibatidine after 15 min in mouse tail-flick assay at subcutaneous dosage of 1000 ug/kg
Mus musculus [5] = assay: Tested for the analgesic effect in the mouse tail-flick assay at 5 min after subcutaneous injection at dosage of 5-50 ug/kg
Mus musculus [6] = assay: Tested for the maximum possible analgesic effect along with saline after 5 min at subcutaneous dosage of 10 ug/kg
Mus musculus [7] = assay: Tested for the maximum possible analgesic effect of epibatidine after 15 min in mouse tail-flick assay at subcutaneous dosage of 10 ug/kg
Mus musculus [8] = assay: Tested for the maximum possible analgesic effect of epibatidine after 5 min in mouse tail-flick assay at subcutaneous dosage of 10 ug/kg
Mus musculus [9] = assay: Tested for the maximum possible analgesic effect along with saline after 15 min at subcutaneous dosage of 10 ug/kg
Mus musculus [10] = assay: Tested for the maximum possible analgesic effect of epibatidine after 30 min in mouse tail-flick assay at subcutaneous dosage of 10 ug/kg
Mus musculus [11] = assay: Tested for the maximum possible analgesic effect along with saline after 30 min at subcutaneous dosage of 10 ug/kg
Mus musculus [12] = assay: Tested for the maximum possible analgesic effect along with naloxone (10 mg/kg) after 30 min at subcutaneous dosage of 10 ug/kg
Mus musculus [13] = assay: Tested for the maximum possible analgesic effect along with naloxone (10 mg/kg) after 5 min at subcutaneous dosage of 10 ug/kg
Mus musculus [14] = assay: Tested for the maximum possible analgesic effect along with naloxone (10 mg/kg) after 15 min at subcutaneous dosage of 10 ug/kg
Mus musculus [15] = assay: Tested for the analgesic effect in the mouse tail-flick assay at 5 min after subcutaneous injection at dosage of 10-50 ug/kg; conditions: sc
Mus musculus [16] = assay: Tested for the analgesic effect in the mouse tail-flick assay at 5 min after subcutaneous injection at dosage of 1000 ug/kg; conditions: sc
Mus musculus [17] = assay: Tested for the maximum possible analgesic effect of epibatidine at 15 min in mouse tail-flick assay after subcutaneous dosage of 1000 ug/kg
Mus musculus [18] = assay: Tested for maximum possible of analgesic effect of epibatidine after 5 min in mouse tail-flick assay at subcutaneous dosage of 10 ug/kg
Mus musculus [19] = assay: Tested for the maximum possible analgesic effect along with saline after 5 min at subcutaneous dosage of 10000 ug/kg
Mus musculus [20] = assay: Tested for the maximum possible analgesic effect along with naloxone (10 mg/kg) after 15 min at subcutaneous dosage of 10000 ug/kg
Mus musculus [21] = assay: Tested for the maximum possible analgesic effect along with saline after 30 min at subcutaneous dosage of 1000-10000 ug/kg
Mus musculus [22] = assay: Tested for the maximum possible analgesic effect along with saline after 15 min at subcutaneous dosage of 10000 ug/kg
Mus musculus [23] = assay: Tested for the maximum possible analgesic effect along with naloxone (10 mg/kg) after 30 min at subcutaneous dosage of 10000 ug/kg
Mus musculus [24] = assay: Tested for the maximum possible analgesic effect along with saline after 30 min at subcutaneous dosage of 10000 ug/kg
Mus musculus [25] = assay: Tested for the maximum possible analgesic effect along with naloxone (10 mg/kg) after 5 min at subcutaneous dosage of 10000 ug/kg

Clc1ccc(C2CC3CCC2N3)cn1 (configuration not stated) [EPIBATIDINE]
Max possible effect (Mus musculus [1]): 11%
ED50 (Mus musculus [2]): > 1000 µg/kg
Max possible effect (Mus musculus [3]): 5%
Max possible effect (Mus musculus [4]): 10%

Clc1ccc(C2CC3CCC2N3)cn1 (stereo in doubt; d-1) [EPIBATIDINE]
ED50 (Mus musculus [5]; Mus musculus, Tail, sc, 5 min, read-out: ED50): 7 µg/kg
Max possible effect (Mus musculus [6]): 86%
Max possible effect (Mus musculus [7]): 32%
Max possible effect (Mus musculus [8]): 89%
Max possible effect (Mus musculus [9]): 48%
Max possible effect (Mus musculus [10]): 3%
Max possible effect (Mus musculus [11]): 4%
Max possible effect (Mus musculus [12]): 0%
Max possible effect (Mus musculus [13]): 77%
Max possible effect (Mus musculus [14]): 49%

CN1C2CCC1C(c1ccc(Cl)nc1)C2 (configuration not stated)
Max possible effect (Mus musculus [7]): 16%
ED50 (Mus musculus [15]): 9 µg/kg
Max possible effect (Mus musculus [8]): 64%
Max possible effect (Mus musculus [10]): 8%

CC(=O)N1C2CCC1C(c1ccc(Cl)nc1)C2 (configuration not stated)
Max possible effect (Mus musculus [1]): 0%
ED50 (Mus musculus [16]): > 1000 µg/kg
Max possible effect (Mus musculus [17]): 3%
Max possible effect (Mus musculus [3]): 4%

Clc1ccc(C2CC3CCC2N3)cn1 (stereo in doubt; l-1) [EPIBATIDINE]
ED50 (Mus musculus [5]): 9 µg/kg
Max possible effect (Mus musculus [18]): 58%
Max possible effect (Mus musculus [7]): 46%
Max possible effect (Mus musculus [10]): 1%

CN1CC[C@]23c4c5ccc(O)c4O[C@H]2[C@@H](O)C=C[C@H]3[C@H]1C5.CN1CC[C@]23c4c5ccc(O)c4O[C@H]2[C@@H](O)C=C[C@H]3[C@H]1C5.O=S(=O)(O)O
Max possible effect (Mus musculus [19]): 7%
Max possible effect (Mus musculus [20]): 3%
Max possible effect (Mus musculus [21]): 4524%
Max possible effect (Mus musculus [22]): 51%
Max possible effect (Mus musculus [23]): 4%
Max possible effect (Mus musculus [24]): 94%
Max possible effect (Mus musculus [25]): 0%

Clc1ccc(C2CC3CCC2N3)cn1 (racemic) [EPIBATIDINE]
ED50 (Mus musculus [5]): 10 µg/kg
Max possible effect (Mus musculus [7]): 23%
Max possible effect (Mus musculus [8]): 47%
Max possible effect (Mus musculus [10]): 5%
